Assays:
Type in all cases: biochemical
JNK1 = target: T1, JNK1 (Homo sapiens, UniProt P45983); assay: 33PanQinase radiometric kinase assay, JNK1 (off-target); conditions: ratio IC50(off-target)/IC50(MKK4)
T1 construct: purchased ProQinase GmbH, Freiburg, Germany (assay service)
Description: (§1) The kinase activities of the compounds of the invention were measured using the 33PanQinase® Assay Service provided by ProQinase GmbH, Freiburg, Germany. Details of the assay conditions are disclosed on the website of ProQinase (https://www.proqinase.com/products-services-biochemical-assay-services/kinase-assays). In brief, all kinase assays were performed in 96-well FlashPlates™ from PerkinElmer (Boston, MA, USA) in a 50 μl reaction volume. The reaction cocktail was pipetted in four steps in the following order: • 20 μl of assay buffer (standard buffer) • 5 μl of ATP solution (in H2O) • 5 μl of test compound (in 10% DMSO) • 20 μl enzyme/substrate mix
(§2) The reaction cocktails were incubated at 30° C. for 60 minutes. The reaction is stopped with 50 μl of 2% (v/v) H3PO4, plates were aspirated and washed two times with 200 μl 0.9% (w/v) NaCl. Incorporation of ^33Pi was determined with a microplate scintillation counter (Microbeta, Wallac).
(§3) All assays were performed with a BeckmanCoulter/SAGIAN™ Core System.
(§4) In case of single concentration assays, the potency of the test compound is expressed as % residual activity. […] The fitting method used was a least-squares fit.
(§5) Selectivity of test compounds against BRaf, JNK1 and MKK7, altogether denominated as off-targets was calculated by the ratio of IC50 (off-target)/IC50 (MKK4) and categorized as follows: […]

MKK7 = target: T2, MKK7 (Homo sapiens, UniProt O14733); assay: 33PanQinase radiometric kinase assay, MKK7 (off-target); conditions: ratio IC50(off-target)/IC50(MKK4)
T2 construct: purchased ProQinase GmbH, Freiburg, Germany (assay service)
T2 sequence (O14733 1-419): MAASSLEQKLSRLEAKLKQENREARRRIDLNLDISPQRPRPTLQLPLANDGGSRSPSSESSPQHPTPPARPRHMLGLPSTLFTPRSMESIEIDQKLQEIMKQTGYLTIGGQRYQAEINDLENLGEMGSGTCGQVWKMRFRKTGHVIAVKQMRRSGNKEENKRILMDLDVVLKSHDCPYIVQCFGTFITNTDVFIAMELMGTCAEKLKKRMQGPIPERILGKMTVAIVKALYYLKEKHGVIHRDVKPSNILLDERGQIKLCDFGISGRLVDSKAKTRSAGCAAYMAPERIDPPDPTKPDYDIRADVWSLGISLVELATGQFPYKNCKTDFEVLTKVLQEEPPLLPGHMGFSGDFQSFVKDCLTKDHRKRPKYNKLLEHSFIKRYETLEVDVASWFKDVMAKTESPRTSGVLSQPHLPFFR
Description: as §1, §2, §3, §4, §5

MKK4 = target: T3, MKK4 (Homo sapiens, UniProt P45985); assay: 33PanQinase radiometric kinase assay, MKK4; conditions: category based on IC50-values; ATP at apparent Km; read-out: Potency MKK4
T3 construct: purchased ProQinase GmbH, Freiburg, Germany (assay service)
T3 sequence (P45985 1-399): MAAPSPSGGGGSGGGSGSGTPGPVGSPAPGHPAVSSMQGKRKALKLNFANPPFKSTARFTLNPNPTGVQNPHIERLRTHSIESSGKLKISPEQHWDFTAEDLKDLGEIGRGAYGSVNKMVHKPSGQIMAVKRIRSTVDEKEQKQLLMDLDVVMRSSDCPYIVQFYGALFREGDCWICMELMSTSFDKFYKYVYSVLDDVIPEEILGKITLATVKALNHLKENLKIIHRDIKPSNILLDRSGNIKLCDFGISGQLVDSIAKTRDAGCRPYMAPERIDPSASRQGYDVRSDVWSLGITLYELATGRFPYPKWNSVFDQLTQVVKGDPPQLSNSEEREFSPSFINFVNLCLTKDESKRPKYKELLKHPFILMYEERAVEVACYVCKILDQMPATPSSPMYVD
Description: as §1, §2, §3, §4

BRaf = target: T4, BRaf (Homo sapiens, UniProt P15056); assay: 33PanQinase radiometric kinase assay, BRaf (off-target); conditions: ratio IC50(off-target)/IC50(MKK4)
T4 construct: purchased ProQinase GmbH, Freiburg, Germany (assay service)
T4 sequence (P15056 whole entry): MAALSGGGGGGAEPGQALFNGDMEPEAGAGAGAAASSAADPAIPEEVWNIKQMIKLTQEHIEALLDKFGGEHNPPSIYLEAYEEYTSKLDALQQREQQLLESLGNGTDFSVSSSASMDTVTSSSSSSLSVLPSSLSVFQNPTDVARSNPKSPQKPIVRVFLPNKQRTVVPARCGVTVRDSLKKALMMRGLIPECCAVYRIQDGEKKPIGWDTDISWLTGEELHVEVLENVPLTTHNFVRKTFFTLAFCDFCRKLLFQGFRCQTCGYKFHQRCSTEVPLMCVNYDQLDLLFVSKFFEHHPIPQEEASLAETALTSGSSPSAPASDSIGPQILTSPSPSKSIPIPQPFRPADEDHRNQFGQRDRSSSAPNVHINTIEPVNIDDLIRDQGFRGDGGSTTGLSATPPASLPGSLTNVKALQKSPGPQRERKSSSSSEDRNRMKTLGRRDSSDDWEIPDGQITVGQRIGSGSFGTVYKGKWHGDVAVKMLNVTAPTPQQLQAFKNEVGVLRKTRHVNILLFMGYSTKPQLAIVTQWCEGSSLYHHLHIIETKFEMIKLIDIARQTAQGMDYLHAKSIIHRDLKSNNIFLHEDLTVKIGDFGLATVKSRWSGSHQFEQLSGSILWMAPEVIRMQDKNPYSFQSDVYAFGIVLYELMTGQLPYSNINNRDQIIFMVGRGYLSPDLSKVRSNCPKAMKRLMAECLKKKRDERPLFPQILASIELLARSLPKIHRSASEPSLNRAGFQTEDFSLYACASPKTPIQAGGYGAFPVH
Description: as §1, §2, §3, §4, §5

T1 sequence (P45983 whole entry): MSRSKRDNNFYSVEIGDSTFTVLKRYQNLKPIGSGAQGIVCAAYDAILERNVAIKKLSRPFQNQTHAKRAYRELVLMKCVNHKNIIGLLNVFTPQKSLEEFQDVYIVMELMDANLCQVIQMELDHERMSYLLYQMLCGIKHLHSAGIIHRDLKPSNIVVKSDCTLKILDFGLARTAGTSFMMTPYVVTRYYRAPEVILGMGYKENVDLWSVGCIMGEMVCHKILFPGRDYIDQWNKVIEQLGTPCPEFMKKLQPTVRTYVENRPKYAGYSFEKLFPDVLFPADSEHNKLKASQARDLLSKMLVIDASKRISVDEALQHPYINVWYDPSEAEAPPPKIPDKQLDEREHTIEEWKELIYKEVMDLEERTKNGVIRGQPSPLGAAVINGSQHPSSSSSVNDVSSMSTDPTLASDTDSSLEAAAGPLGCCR

Row | Structure (SMILES) | Selectivity JNK1 (JNK1) | Selectivity MKK7 (MKK7) | IC50 (MKK4) [nM] | Selectivity Braf (BRaf)
1 | CCCS(=O)(=O)Nc1c(F)ccc(C(=O)c2n[nH]c3ncc(-c4cnc(C(C)(C)C)nc4)cc23)c1F [Example 21, N-(3-(5-(2-(tert-butyl)pyrimidin-5-yl)-1H-pyrazolo[3,4-b]pyridine-3-carbonyl)-2,6-difluorophenyl)propane-1-sulfonamide] | +++ (IC50(off-target)/IC50(MKK4) > 100) | +++ (IC50(off-target)/IC50(MKK4) > 100) | < 100 | +++ (IC50(off-target)/IC50(MKK4) > 100)
2 | CCCS(=O)(=O)Nc1c(F)ccc(C(=O)c2n[nH]c3ncc(-c4cnc(SC)nc4)cc23)c1F [Example 22, N-(2,6-difluoro-3-(5-(2-(methylthio)pyrimidin-5-yl)-1H-pyrazolo[3,4-b]pyridine-3-carbonyl)phenyl)propane-1-sulfonamide] | +++ (IC50(off-target)/IC50(MKK4) > 100) | +++ (IC50(off-target)/IC50(MKK4) > 100) | < 100 | +++ (IC50(off-target)/IC50(MKK4) > 100)
3 | CCCS(=O)(=O)Nc1c(F)ccc(C(=O)c2n[nH]c3ncc(-c4cnc(C(C)C)nc4)cc23)c1F [Example 23, N-(2,6-difluoro-3-(5-(2-isopropylpyrimidin-5-yl)-1H-pyrazolo[3,4-b]pyridine-3-carbonyl)phenyl)propane-1-sulfonamide] | +++ (IC50(off-target)/IC50(MKK4) > 100) | +++ (IC50(off-target)/IC50(MKK4) > 100) | < 100 | +++ (IC50(off-target)/IC50(MKK4) > 100)
4 | CCCS(=O)(=O)Nc1c(F)ccc(C(=O)c2n[nH]c3ncc(-c4cccnc4)cc23)c1F [Example 27, N-(2,6-difluoro-3-(5-(pyridin-3-yl)-1H-pyrazolo[3,4-b]pyridine-3-carbonyl)phenyl)propane-1-sulfonamide] | +++ (IC50(off-target)/IC50(MKK4) > 100) | +++ (IC50(off-target)/IC50(MKK4) > 100) | < 100 | +++ (IC50(off-target)/IC50(MKK4) > 100)
5 | CCCS(=O)(=O)Nc1c(F)ccc(C(=O)c2n[nH]c3ncc(-c4ccc(C(=O)O)nc4)cc23)c1F [Example 28, 5-(3-(2,4-difluoro-3-(propylsulfonamido)benzoyl)-1H-pyrazolo[3,4-b]pyridin-5-yl)picolinic acid] | +++ (IC50(off-target)/IC50(MKK4) > 100) | ++ (100 ≥ IC50(off-target)/IC50(MKK4) > 10) | < 100 | +++ (IC50(off-target)/IC50(MKK4) > 100)
6 | CCCS(=O)(=O)Nc1c(F)ccc(C(=O)c2n[nH]c3ncc(-c4cncnc4C)cc23)c1F [Example 29, N-[2,6-difluoro-3-[5-(4-methylpyrimidin-5-yl)-1H-pyrazolo[3,4-b]pyridine-3-carbonyl]phenyl]propane-1-sulfonamide] | +++ (IC50(off-target)/IC50(MKK4) > 100) | +++ (IC50(off-target)/IC50(MKK4) > 100) | 100 to 1000 | +++ (IC50(off-target)/IC50(MKK4) > 100)
7 | CCCS(=O)(=O)Nc1c(F)ccc(C(=O)c2n[nH]c3ncc(-c4cnc(C)nc4C)cc23)c1F [Example 30, N-[3-[5-(2,4-dimethylpyrimidin-5-yl)-1H-pyrazolo[3,4-b]pyridine-3-carbonyl]-2,6-difluoro-phenyl]propane-1-sulfonamide] | +++ (IC50(off-target)/IC50(MKK4) > 100) | +++ (IC50(off-target)/IC50(MKK4) > 100) | 100 to 1000 | +++ (IC50(off-target)/IC50(MKK4) > 100)
8 | CCCS(=O)(=O)Nc1c(F)ccc(C(=O)c2n[nH]c3ncc(-c4cnc(C5CC5)nc4C)cc23)c1F [Example 31, N-(3-(5-(2-cyclopropyl-4-methylpyrimidin-5-yl)-1H-pyrazolo[3,4-b]pyridine-3 carbonyl)-2,6-difluorophenyl)propane-1-sulfonamide] | +++ (IC50(off-target)/IC50(MKK4) > 100) | +++ (IC50(off-target)/IC50(MKK4) > 100) | 100 to 1000 | +++ (IC50(off-target)/IC50(MKK4) > 100)
9 | CCCS(=O)(=O)Nc1c(F)ccc(C(=O)c2n[nH]c3ncc(-c4cnc(C5CC5)nc4SC)cc23)c1F [Example 32, N-(3-(5-(2-cyclopropyl-4-(methylthio)pyrimidin-5-yl)-1H-pyrazolo[3,4-b]pyridine-3 carbonyl)-2,6-difluorophenyl)propane-1-sulfonamide] | +++ (IC50(off-target)/IC50(MKK4) > 100) | +++ (IC50(off-target)/IC50(MKK4) > 100) | 100 to 1000 | +++ (IC50(off-target)/IC50(MKK4) > 100)
10 | CCCS(=O)(=O)Nc1c(F)ccc(C(=O)c2n[nH]c3ncc(-c4cnc(SC)nc4C)cc23)c1F [Example 33, N-[2,6-difluoro-3-[5-(4-methyl-2-methylsulfanyl-pyrimidin-5-yl)-1H-pyrazolo[3,4-b]pyridine-3-carbonyl]phenyl]propane-1-sulfonamide] | +++ (IC50(off-target)/IC50(MKK4) > 100) | +++ (IC50(off-target)/IC50(MKK4) > 100) | < 100 | +++ (IC50(off-target)/IC50(MKK4) > 100)
11 | CCCS(=O)(=O)Nc1c(F)ccc(C(=O)c2n[nH]c3ncc(-c4cnc(OC)nc4OC)cc23)c1F [Example 34, N-[3-[5-(2,4-dimethoxypyrimidin-5-yl)-1H-pyrazolo[3,4-b]pyridine-3-carbonyl]-2,6-difluoro-phenyl]propane-1-sulfonamide] | +++ (IC50(off-target)/IC50(MKK4) > 100) | +++ (IC50(off-target)/IC50(MKK4) > 100) | < 100 | +++ (IC50(off-target)/IC50(MKK4) > 100)
12 | CCCS(=O)(=O)Nc1c(F)cc(F)c(C(=O)c2n[nH]c3ncc(-c4cnc(C5CC5)nc4)cc23)c1F [Example 35, N-(3-(5-(2-cyclopropylpyrimidin-5-yl)-1H-pyrazolo[3,4-b]pyridine-3-carbonyl)-2,4,6-trifluorophenyl)propane-1-sulfonamide] | +++ (IC50(off-target)/IC50(MKK4) > 100) | +++ (IC50(off-target)/IC50(MKK4) > 100) | < 100 | +++ (IC50(off-target)/IC50(MKK4) > 100)
13 | CCCS(=O)(=O)Nc1c(F)ccc(C(=O)c2n[nH]c3ncc(-c4ccncc4CC)cc23)c1F [Example 36, N-[3-[5-(3-ethyl-4-pyridyl)-1H-pyrazolo[3,4-b]pyridine-3-carbonyl]-2,6-difluoro-phenyl]propane-1-sulfonamide] | +++ (IC50(off-target)/IC50(MKK4) > 100) | +++ (IC50(off-target)/IC50(MKK4) > 100) | < 100 | +++ (IC50(off-target)/IC50(MKK4) > 100)
14 | CCCS(=O)(=O)Nc1c(F)ccc(C(=O)c2n[nH]c3ncc(-c4ccncc4C#N)cc23)c1F [Example 37, N-[3-[5-(3-cyano-4-pyridyl)-1H-pyrazolo[3,4-b]pyridine-3-carbonyl]-2,6-difluoro-phenyl]propane-1-sulfonamide] | +++ (IC50(off-target)/IC50(MKK4) > 100) | +++ (IC50(off-target)/IC50(MKK4) > 100) | < 100 | +++ (IC50(off-target)/IC50(MKK4) > 100)
